Source: paper PMC11364775, “Ion occupancy of the selectivity filter controls opening of a cytoplasmic gate in the K2P channel TALK-2” (Nature Communications, 2024)
Like-named read-outs stand apart in the source and are kept apart here.

What was measured:
[1] = molecular target: T1, WT TALK-2 channels (Homo sapiens, UniProt Q96T54); conditions: TALK-2 WT
T1 sequence (Q96T54 1-332): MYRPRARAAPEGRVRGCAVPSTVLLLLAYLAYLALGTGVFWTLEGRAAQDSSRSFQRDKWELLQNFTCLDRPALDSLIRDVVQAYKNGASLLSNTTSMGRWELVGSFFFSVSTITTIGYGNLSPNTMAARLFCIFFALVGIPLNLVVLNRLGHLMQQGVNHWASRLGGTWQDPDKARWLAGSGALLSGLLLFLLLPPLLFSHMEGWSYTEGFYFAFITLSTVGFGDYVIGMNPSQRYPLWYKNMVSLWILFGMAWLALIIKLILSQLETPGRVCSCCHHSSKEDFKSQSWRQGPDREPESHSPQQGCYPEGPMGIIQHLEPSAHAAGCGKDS
Description: Data shown are the mean ± s.e.m and the number (n) of repeats of the representative measurements with similar results is indicated in the figure.
Oocytes were surgically removed from anesthetized adult females, treated with type II collagenase (Sigma-Aldrich/Merck, Germany) and manually defolliculated. 50 nl of a solution containing the K^+ channel specific cRNA was injected into Dumont stage V - VI oocytes and subsequently incubated at 17 °C in a solution containing (mM): 54 NaCl, 30 KCl, 2.4 NaHCO3, 0.82 MgSO4 x 7 H2O, 0.41 CaCl2, 0.33 Ca(NO3)2 x 4 H2O and 7.5 TRIS (pH 7.4 adjusted with NaOH/HCl) for 1–7 days before use. Electrophysiological recordings: Excised patch measurements in inside-out configuration under voltage-clamp conditions were performed at room temperature (22 – 24 °C). Patch pipettes were made from thick-walled borosilicate glass GB 200TF-8P (Science Products, Germany), had resistances of 0.2–0.5 MΩ (tip diameter of 10 - 25 µm) and filled with a pipette solution (in mM): 120 KCl, 10 HEPES and 3.6 CaCl2 (pH 7.0 - 8.5 adjusted with KOH/HCl) or 120 KCl, 10 AMPSO and 3.6 CaCl2 (pH 9.0 - 10.5 adjusted with KOH/HCl). Intracellular bath solutions and compounds were applied to the cytoplasmic side of excised patches for the various K^+ channels via a gravity flow multi-barrel pipette system. Intracellular solution had the following composition (in mM): 120 KCl, 10 HEPES, 2 EGTA and 1 Pyrophosphate (pH adjusted with KOH/HCl). In other intracellular bath solutions, K^+ was replaced by Rb^+ (pH 7.4 adjusted with RbOH/HCl). Currents were recorded with an EPC10 amplifier (HEKA electronics, Germany) and sampled at 10 kHz or higher and filtered with 3 kHz (-3 dB) or higher as appropriate for sampling rate.

[2] = molecular target: T1, WT TALK-2 channels; assay: Conductance-voltage (G-V) curves from tail currents, V1/2 (intracellular Rb+); format: cell-based; design: expressed in transfected cells; host or cells: Xenopus laevis oocytes (cRNA injection), excised inside-out patches; conditions: for Normalized current: TALK-2 WT + 1 mM 2-APB
Excerpt: The voltage-dependent activation mechanism of the SF gate in K2P channels allows to estimate the electrical work (ΔG = zFΔV1/2) required for pore opening by fitting the G–V curve to a Boltzmann equation. […] The open state represents the situation of both gates being simultaneously open but voltage can only exert force on the SF gate that functions as voltage sensor. […] We further tested whether mutations that open the lower gate (L262A and L264A) would affect the extracellular pH sensitivity. […] We further explored this concept of allosteric coupling using the mutations identified in the functional alanine screen of TM2 and TM4. […]
Conductance-voltage (G–V) relationships were determined from tail currents recorded at a holding potential (VH) of −80 mV after 300 ms depolarizing steps as indicated in the respective figure legend. Data were analyzed with a single Boltzmann fit following Eq. 6:6 GV=Imax/1+e^V−V1/2/slope+Ibase where V1/2 represents the voltage of half-maximal activation, s is the slope factor and Imax and Ibase represent the upper and lower asymptotes. Under appropriate experimental conditions, you can use slope to calculate the valence (charge) of the ion moving across the channel. Slope equals R * T/ z * F where R is the universal gas constant, T is temperature in K, F is the Faraday constant, and z is the valence.

[3] = molecular target: T2, WT TALK-2 channels (human K2P17.1) (Homo sapiens, UniProt Q96T54); assay: Inside-out patch-clamp, ligand activation of channel currents at +40 mV (oocytes)
T2 sequence (Q96T54 1-332): T1 sequence (Q96T54 1-332)
Description: Oocytes were surgically removed from anesthetized adult females, treated with type II collagenase (Sigma-Aldrich/Merck, Germany) and manually defolliculated. 50 nl of a solution containing the K^+ channel specific cRNA was injected into Dumont stage V - VI oocytes and subsequently incubated at 17 °C in a solution containing (mM): 54 NaCl, 30 KCl, 2.4 NaHCO3, 0.82 MgSO4 x 7 H2O, 0.41 CaCl2, 0.33 Ca(NO3)2 x 4 H2O and 7.5 TRIS (pH 7.4 adjusted with NaOH/HCl) for 1–7 days before use. Electrophysiological recordings: Excised patch measurements in inside-out configuration under voltage-clamp conditions were performed at room temperature (22 – 24 °C). […] Intracellular bath solutions and compounds were applied to the cytoplasmic side of excised patches for the various K^+ channels via a gravity flow multi-barrel pipette system. Intracellular solution had the following composition (in mM): 120 KCl, 10 HEPES, 2 EGTA and 1 Pyrophosphate (pH adjusted with KOH/HCl). In other intracellular bath solutions, K^+ was replaced by Rb^+ (pH 7.4 adjusted with RbOH/HCl). Currents were recorded with an EPC10 amplifier (HEKA electronics, Germany) and sampled at 10 kHz or higher and filtered with 3 kHz (-3 dB) or higher as appropriate for sampling rate.
Recorded currents were analyzed from stable membrane patches at a voltage defined in the respective figure legend or with a voltage protocol as indicated in the respective figure. The fold activation (fold change in (tail) current amplitude) of a ligand (drug or bioactive lipid) was calculated from Eq. 1:1 Fold activationFA=Iactivated/Ibasal where Iactivated represents the stable current level in the presence of a given concentration of a respective ligand and Ibasal the measured current before ligand application. Percentage inhibition or residual currents upon blocker application for a ligand (drug or bioactive lipid) was calculated from stable currents of excised membrane patches using the following Eqs. 2 and 3:2 %inhibition=1−Iinhibited/Ibasal*100 3 Residual current=100−%inhibition where Iinhibited refers to the stable current level recorded in the presence of a given concentration of a drug or bioactive lipid and Ibasal to the measured current before ligand application. The macroscopic half-maximal concentration-inhibition relationship of a ligand was obtained using a Hill-fit for dose-response curves as depicted in Eq. 4:4 %inhibition/activation=Ibase+Imax−Ibase/1+x1/2/x^rate where base and max are the currents in the absence and presence of a respective ligand, x is the concentration of the ligand, x1/2 is the ligand concentration at which the activatory or inhibitory effect is half-maximal, rate is the Hill coefficient.

Rb+-induced current ([1]; 0.001 mM 2-APB): 0.79 nA
Rb+-induced current ([1]; 0.01 mM 2-APB): 0.98 nA
Rb+-induced current ([1]; 0.1 mM 2-APB): 2.85 nA
Rb+-induced current ([1]; 0.5 mM 2-APB): 8.79 nA
Rb+-induced current ([1]; 1.0 mM 2-APB): 11.82 nA
Rb+-induced current ([1]; 2.0 mM 2-APB): 15.32 nA
V1/2 shift (mV) ([2]; 1 mM 2-APB, shift of G-V curve): 26.9 mV
Normalized current ([2]; Voltage 0.000): 0.204
Normalized current ([2]; Voltage 0.005): 0.227
Normalized current ([2]; Voltage 0.010): 0.255
Normalized current ([2]; Voltage 0.015): 0.290
Normalized current ([2]; Voltage 0.020): 0.331
Normalized current ([2]; Voltage 0.025): 0.376
Normalized current ([2]; Voltage 0.030): 0.427
Normalized current ([2]; Voltage 0.035): 0.474
Normalized current ([2]; Voltage 0.040): 0.520
Normalized current ([2]; Voltage 0.045): 0.565
Normalized current ([2]; Voltage 0.050): 0.611
Normalized current ([2]; Voltage 0.055): 0.652
Normalized current ([2]; Voltage 0.060): 0.689
Normalized current ([2]; Voltage 0.065): 0.723
Normalized current ([2]; Voltage 0.070): 0.754
Normalized current ([2]; Voltage 0.075): 0.784
Normalized current ([2]; Voltage 0.080): 0.809
Normalized current ([2]; Voltage 0.085): 0.834
Normalized current ([2]; Voltage 0.090): 0.854
Normalized current ([2]; Voltage 0.095): 0.872
Normalized current ([2]; Voltage 0.100): 0.891
Normalized current ([2]; Voltage 0.105): 0.905
Normalized current ([2]; Voltage 0.110): 0.919
Normalized current ([2]; Voltage 0.115): 0.931
Normalized current ([2]; Voltage 0.120): 0.943
Normalized current ([2]; Voltage 0.125): 0.952
Normalized current ([2]; Voltage 0.130): 0.961
Normalized current ([2]; Voltage 0.135): 0.972
Normalized current ([2]; Voltage 0.140): 0.971
Normalized current ([2]; Voltage 0.145): 0.979
Normalized current ([2]; Voltage 0.150): 0.985
Normalized current ([2]; Voltage 0.155): 0.989
Normalized current ([2]; Voltage 0.160): 0.992
Normalized current ([2]; Voltage -0.005): 0.187
Normalized current ([2]; Voltage -0.010): 0.175
Normalized current ([2]; Voltage -0.015): 0.167
Normalized current ([2]; Voltage -0.020): 0.158
Normalized current ([2]; Voltage -0.025): 0.153
Normalized current ([2]; Voltage -0.030): 0.148
Normalized current ([2]; Voltage -0.035): 0.143
Normalized current ([2]; Voltage -0.040): 0.140
Normalized current ([2]; Voltage -0.045): 0.136
Normalized current ([2]; Voltage -0.050): 0.131
Normalized current ([2]; Voltage -0.055): 0.128
Normalized current ([2]; Voltage -0.060): 0.125
Normalized current ([2]; Voltage -0.065): 0.121
Normalized current ([2]; Voltage -0.070): 0.118
Normalized current ([2]; Voltage -0.075): 0.115
Normalized current ([2]; Voltage -0.080): 0.114
Normalized current ([2]; Voltage -0.085): 0.112
Normalized current ([2]; Voltage -0.090): 0.113
Normalized current ([2]; Voltage -0.095): 0.112
Normalized current ([2]; Voltage -0.100): 0.112
Normalized current ([2]; Voltage -0.105): 0.111
Normalized current ([2]; Voltage -0.110): 0.110
Normalized current ([2]; Voltage -0.115): 0.110
Normalized current ([2]; Voltage -0.120): 0.111
V1/2 ([2]; TALK-2 WT, 1 mM ligand): 44.7 mV
EC50 [3]: 421 ± 34 µM
Fold activation 1 mM 2-APB ([3]; 1 mM, TALK-2 WT): 26.51 fold
Normalized currents ([3]; TALK-2 WT, 0.1 µM 2-APB): 0.04
Normalized currents ([3]; TALK-2 WT, 1 µM 2-APB): 0.04
Normalized currents ([3]; TALK-2 WT, 10 µM 2-APB): 0.05
Normalized currents ([3]; TALK-2 WT, 100 µM 2-APB): 0.19
Normalized currents ([3]; TALK-2 WT, 500 µM 2-APB): 0.58
Normalized currents ([3]; TALK-2 WT, 1000 µM 2-APB): 0.87
Normalized currents ([3]; TALK-2 WT, 2000 µM 2-APB): 1.00
Compound: NCCOB(c1ccccc1)c1ccccc1 [2-APB, 2-aminoethoxydiphenyl borate]
